According to PMC9465710, “Identification of a BAZ2A-Bromodomain Hit Compound by Fragment Growing” (ACS Medicinal Chemistry Letters, 2022):

Molecular target: T1, BAZ2A bromodomain (Homo sapiens, UniProt Q9UIF9)
T1 construct: made in house
T1 sequence (Q9UIF9 1793-1897 limits assumed): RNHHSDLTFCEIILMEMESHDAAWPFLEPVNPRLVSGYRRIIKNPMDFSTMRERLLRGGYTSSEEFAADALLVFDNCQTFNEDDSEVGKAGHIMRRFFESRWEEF
Test: AlphaScreen competition binding assay (BAZ2A bromodomain binding to acetylated peptide)
Conditions: for IC50: AlphaScreen dose-response; for remaining binding at 500 µM: single dose, compound concentration 500 μM, read-out: % residual BAZ2A activity; for decrease of binding of BAZ2A bromodomain to the acetylated peptide: tested at 500 μM, single dose in duplicate
Experimental: The 36 selected molecules were tested by AlphaScreen at single doses in duplicate. Six molecules (compounds 8, 9, 11, 14, 18, and 25) decreased binding of BAZ2A bromodomain to the acetylated peptide by at least 50% when tested at 500 μM. […]
AlphaScreen assay was conducted as detailed in [11]. […]

Row | Compound | IC50 [µM] | other results
1 | CCc1c(-c2csc(CCCN)n2)[nH]c(C)c1C(C)=O [Compound 44] | 57.9 ± 6 | –
2 | CCc1c(-c2csc(C3(NC(C)=O)CCNC3)n2)[nH]c(C)c1C(C)=O (stereo not shown) [Compound 54] | 61.3 ± 10.6 | –
3 | Cc1[nH]c(-c2csc(N3CCN(Cc4c[nH]c5ncncc45)CC3)n2)c2c1C(=O)CCC2 [Compound 99] | 10.9 ± 0.2 | –
4 | Cc1[nH]c(-c2csc(N3CCNCC3)n2)c2c1C(=O)CC(C)(C)C2 [Compound 81] | 11.8 ± 0.3 | –
5 | CC(=O)N1CCN(c2ccc(NC(=N)N)cc2)CC1 [Compound 18] | > 200 | remaining binding at 500 µM: 37 ± 4%; decrease of binding of BAZ2A bromodomain to the acetylated peptide: at least 50%
6 | CCc1c(-c2csc(CN3CCNCC3)n2)[nH]c(C)c1C(C)=O [Compound 61] | 54 ± 0.2 | –
7 | CCc1c(-c2csc(N3CCNCC3C(=O)NCCc3cc4ccccc4[nH]3)n2)[nH]c(C)c1C(C)=O (stereo not shown) [Compound 105] | 33.2 ± 0.3 | –
8 | NC1CCN(C(=O)c2ccc(=O)[nH]c2)CC1 [Compound 36] | – | remaining binding at 500 µM: 71 ± 3%
9 | NC(=O)c1cc(OC2CCNCC2)ccn1 [Compound 13] | – | remaining binding at 500 µM: 75 ± 2%
10 | CCc1c(-c2csc(N3CCNCC3C(=O)NC(CO)CO)n2)[nH]c(C)c1C(C)=O (stereo not shown) [Compound 112] | 42 ± 5.2 | –
11 | CCc1c(-c2csc(N)n2)[nH]c(C)c1C(C)=O [Compound 43] | 76.2 ± 8.6 | –
12 | CCc1c(-c2csc(C3CCCN3C(C)=O)n2)[nH]c(C)c1C(C)=O (stereo not shown) [Compound 57] | 93.2 ± 10.1 | –
13 | CCc1c(-c2csc(C3CCNCC3)n2)[nH]c(C)c1C(C)=O [Compound 48] | 94.6 ± 11.7 | –
14 | CCc1c(-c2csc(N3CCN(Cc4ccnn4CC(C)C)CC3)n2)[nH]c(C)c1C(C)=O [Compound 97] | 49.3 ± 5.7 | –
15 | CCc1c(-c2csc(CN3CCN(C(C)=O)CC3)n2)[nH]c(C)c1C(C)=O [Compound 64] | 75.7 ± 9.2 | –
16 | CCc1c(-c2csc(Cc3ccc(N)cc3)n2)[nH]c(C)c1C(C)=O [Compound 60] | > 100 | –
17 | CCc1c(-c2csc(N3CCN(CC4CCN(CC)CC4)CC3)n2)[nH]c(C)c1C(C)=O [Compound 87] | 46.6 ± 2.5 | –

Row | Compound | IC50 [µM] | other results
18 | CCc1c(-c2csc(C3CCN(C(C)=O)C3)n2)[nH]c(C)c1C(C)=O (stereo not shown) [Compound 55] | 114 ± 22.1 | –
19 | CCc1c(-c2csc(C3COCCN3)n2)[nH]c(C)c1C(C)=O (stereo not shown) [Compound 52] | 93.5 ± 9.7 | –
20 | CCc1c(-c2csc(C3CCNC3)n2)[nH]c(C)c1C(C)=O (stereo not shown) [Compound 53] | 54 ± 0.2 | –
21 | NC1CCCN(S(=O)(=O)c2cccc3cnccc23)C1 (stereo not shown) [Compound 8] | > 200 | remaining binding at 500 µM: 49 ± 7%; decrease of binding of BAZ2A bromodomain to the acetylated peptide: at least 50%
22 | CCc1c(-c2csc(C3CCCN3C(N)=O)n2)[nH]c(C)c1C(C)=O (stereo not shown) [Compound 58] | > 100 | –
23 | Cc1[nH]c(-c2csc(N3CCNCC3)n2)c2c1C(=O)CCC2(C)C [Compound 82] | 44.6 ± 5.6 | –
24 | CCc1c(-c2csc(N3CCNCC3)n2)[nH]c(C)c1C(N)=O [Compound 74] | > 100 | –
25 | CCc1c(-c2csc(N3CCNCC3C(=O)NCC(C)(C)C)n2)[nH]c(C)c1C(C)=O (stereo not shown) [Compound 113] | 14 ± 0.3 | –
26 | CCc1c(-c2csc(N3CCN(Cc4n[nH]cc4C)CC3)n2)[nH]c(C)c1C(C)=O [Compound 92] | 13.1 ± 0.9 | –
27 | CCc1c(-c2csc(N3CCNCC3C(=O)NCC(N)=O)n2)[nH]c(C)c1C(C)=O (stereo not shown) [Compound 110] | 22 ± 2.3 | –
28 | CCc1c(-c2csc(-c3cnc[nH]3)n2)[nH]c(C)c1C(C)=O [Compound 72] | 54.6 ± 7.1 | –
29 | CCc1c(-c2csc(N3CCN(Cc4conc4COC)CC3)n2)[nH]c(C)c1C(C)=O [Compound 96] | 85.1 ± 6.8 | –
30 | Cc1[nH]c(-c2csc(N3CCNCC3)n2)c2c1C(=O)CCC2 [Compound 80] | 11.4 ± 0.3 | –
31 | CCc1c(-c2csc(C3CCCCN3)n2)[nH]c(C)c1C(C)=O (stereo not shown) [Compound 50] | 76.8 ± 6.4 | –
32 | NCc1ccc(N2CCNC(=O)C2)cc1 [Compound 14] | > 200 | remaining binding at 500 µM: 32 ± 4%; decrease of binding of BAZ2A bromodomain to the acetylated peptide: at least 50%
33 | CC(=O)c1c(C)[nH]c(-c2csc(N3CCNCC3)n2)c1CCC(F)(F)F [Compound 77] | 38.9 ± 2 | –
34 | CCc1c(-c2csc(N3CCNCC3C(=O)NC3(c4ncccc4F)CC3)n2)[nH]c(C)c1C(C)=O (stereo not shown) [Compound 100] | 36.5 ± 4.1 | –

The next lines start with results.

Row | IC50 [µM] | Compound | other results
35 | 53.9 ± 0.2 | CCc1c(-c2csc(NC3CCNCC3)n2)[nH]c(C)c1C(C)=O [Compound 62] | –
36 | 60.5 ± 9.4 | CCc1c(-c2csc(CN3CCC(N)CC3)n2)[nH]c(C)c1C(C)=O [Compound 63] | –
37 | 109 ± 12.3 | CCc1c(-c2csc(CCNC)n2)[nH]c(C)c1C(C)=O [Compound 45] | –
38 | 33.2 ± 0.3 | CCc1c(-c2csc(N=C(N)N)n2)[nH]c(C)c1C(C)=O [Compound 25] | ligand efficiency (LE): 0.31 kcal/mol per heavy atom; lipophilic ligand efficiency (LLE): 2.4; remaining binding at 500 µM: 5 ± 0.6%; decrease of binding of BAZ2A bromodomain to the acetylated peptide: at least 50%
39 | 35.1 ± 0.2 | CCc1c(-c2csc(N3CCNCC3C(=O)NCC(C)(C)CC)n2)[nH]c(C)c1C(C)=O (stereo not shown) [Compound 108] | –
40 | > 100 | CCc1c(-c2csc(N3CCN(Cc4cc5n(n4)CCC5)CC3)n2)[nH]c(C)c1C(C)=O [Compound 86] | –
41 | 12.9 ± 2 | CCc1c(-c2csc(N3CCN(Cc4c[nH]c5ncncc45)CC3)n2)[nH]c(C)c1C(C)=O [Compound 95] | –
42 | 31.3 ± 0.7 | CCc1c(-c2csc(N3CCNCC3C(=O)NCCCCO)n2)[nH]c(C)c1C(C)=O (stereo not shown) [Compound 109] | –
43 | 54 ± 0.3 | CC(=O)c1c(C)[nH]c(-c2csc(CN3C(=O)CNC3=O)n2)c1C [Compound 65] | –
44 | > 200 | O=S(=O)(NC1CCNC1)c1cccc2cnccc12 (stereo not shown) [Compound 9] | remaining binding at 500 µM: 44 ± 3%; decrease of binding of BAZ2A bromodomain to the acetylated peptide: at least 50%
45 | 12.6 ± 1.4 | Cc1c[nH]nc1CN1CCN(c2nc(-c3[nH]c(C)c4c3CCCC4=O)cs2)CC1 [Compound 98] | –
46 | > 200 | C/N=C(/NC)NC1CCN(c2cc(OC)cc(OC)c2)CC1 [Compound 11] | remaining binding at 500 µM: 48 ± 5%; decrease of binding of BAZ2A bromodomain to the acetylated peptide: at least 50%
47 | 10.6 ± 0.2 | CCc1c(-c2csc(N3CCNCC3C(=O)NC3(Cc4ccccc4Br)CC3)n2)[nH]c(C)c1C(C)=O (stereo not shown) [Compound 102] | –
48 | 74.2 ± 9.1 | CCc1c(-c2csc(CN3CCOCC3)n2)[nH]c(C)c1C(C)=O [Compound 59] | –
49 | > 100 | CCc1c(-c2csc(C3CCN(C(N)=O)C3)n2)[nH]c(C)c1C(C)=O (stereo not shown) [Compound 56] | –
50 | 40.1 ± 3.4 | CC(=O)c1c(C)[nH]c(-c2csc(N3CCNCC3)n2)c1C1CCCC1 [Compound 78] | –
51 | 42.9 ± 4.6 | CCc1c(-c2csc(N3CCN(Cc4cn(CC(N)=O)nn4)CC3)n2)[nH]c(C)c1C(C)=O [Compound 88] | –
52 | 99.7 ± 10.9 | CCc1c(-c2csc(C3(N)CCCC3)n2)[nH]c(C)c1C(C)=O [Compound 66] | –
53 | 12.5 ± 0.4 | CC(=O)c1c(C)[nH]c(-c2csc(N3CCNCC3)n2)c1CCC(C)C [Compound 79] | –
54 | 47 ± 5 | CCc1c(-c2csc(C3CCCNC3)n2)[nH]c(C)c1C(C)=O (stereo not shown) [Compound 49] | –
55 | 33.3 ± 0.4 | CCc1c(-c2csc(N3CCNCC3)n2)[nH]c(C)c1C(C)=O [Compound 47] | ligand efficiency (LE): 0.29 kcal/mol per heavy atom; lipophilic ligand efficiency (LLE): 1.9
56 | 29.2 ± 0.3 | Cc1[nH]c(-c2csc(NC(=N)N)n2)c2c1C(=O)CC(C)(C)C2 [Compound 84] | –
57 | 11 ± 0.2 | CCc1c(-c2csc(N3CCNCC3C(=O)NCCC(F)(F)F)n2)[nH]c(C)c1C(C)=O (stereo not shown) [Compound 111] | –
